Legend:
rat remnant kidney model [1] = experiment: Serum and urine electrolytes in remnant kidney model; type: in vivo
Protocol: (§1) Treatments were started 21 days after RMR, when animals already had overt nephropathy. Treatment groups (n=8/group, except enalapril n=7) included vehicle; Compound 1 at 10 mg/kg/d; Compound 1 at 30 mg/kg/d; enalapril at 15 mg/mL (in drinking water); and enalapril at 15 mg/mL+Compound 1 at 30 mg/kg/d. All compounds were administered in drinking water. An additional sham-operated untreated group was also included. Measurements were made at 21 d after RMR but before treatment, and at one and two months of treatment. […] Since the increased mortality was not dose dependent and was not apparent in the group receiving combination treatment with Compound 1 and enalapril (Table 1), the effect is likely due to chance and the known variability in the severity of renal failure in this model.
(§2) Water intake and diuresis was increased in all treatment groups following RMR (Table 2). […] There were no differences in serum electrolytes in any of the treatment groups at the termination of the experiment (Table 2).
Urinary Na excretion was reduced in the vehicle treated RMR rats. […] Urinary K and Cl excretion were reduced in rats with RMR compared to control rats.

Type I diabetic rats = experiment: Arterial pressure and heart rate in Type I diabetic rats after seven days oral administration; type: in vivo, rat; conditions: oral administration for seven days
Protocol: Oral administration of Compound 1 for seven days in Type I diabetic rats had no effect on mean arterial pressure or heart rate over 48 h in diabetic rats. […] Oral administration of enalapril for seven days had no effect on arterial pressure over 48 h in diabetic rat

rat remnant kidney model [2] = experiment: Water intake and diuresis in remnant kidney model; type: in vivo; conditions: mean ± S.E.
Protocol: Treatments were started 21 days after RMR, when animals already had overt nephropathy. […] All compounds were administered in drinking water. An additional sham-operated untreated group was also included. Measurements were made at 21 d after RMR but before treatment, and at one and two months of treatment. […] Since the increased mortality was not dose dependent and was not apparent in the group receiving combination treatment with Compound 1 and enalapril (Table 1), the effect is likely due to chance and the known variability in the severity of renal failure in this model.
as §2

[3] = test system: streptozotocin-induced diabetic rat; experiment: Streptozotocin-induced diabetic rat model of nephropathy; type: in vivo
Protocol: The streptozotocin-induced diabetic rat is a model of Type I diabetes that develops early renal dysfunction manifested as increased urine albumin excretion. One week after administration of streptozotocin, 65 mg/kg, i.p., rats were assigned to the following treatment groups: no treatment; Compound 1 at 30 mg/kg/d; or enalapril at 30 mg/kg/d. Both compounds were dosed in drinking water for 12 weeks. Mortality among the treatment groups at 12 weeks was 1/10 in the untreated and Compound 1-treated groups and 3/10 in the enalapril-treated group. As a result of the diabetic state, urine volumes were nearly 10 times that of non-diabetic rats. […] The fraction of filtered sodium and potassium excreted was unaffected by either Compound 1 and enalapril.

db/db mice = type: in vivo
Protocol: Male db/db mice, a genetic model of type 2 diabetes, develop early renal dysfunction manifested as increased urine albumin excretion. At 9 weeks of age diabetes was confirmed by measurement of blood glucose (>300 mg/dL) and animals assigned to one of three treatment groups (n=12/group): untreated, Compound 1, 30 mg/kg/d and enalapril, 30 mg/kg/d. Compounds were dosed in drinking water for 16 weeks. There was no mortality in any of the treatment groups. Body weights for animals were similar at the beginning of the study.

rat remnant kidney model [4] = experiment: Rat remnant kidney model of nephropathy (renal mass reduction, RMR); type: in vivo; conditions: for Mortality rate: enalapril in drinking water, dead/total
Source text: The rat remnant kidney model is an animal model of severe progressive renal failure. In this model, a state of severe progressive renal failure is produced by renal mass reduction (RMR) through removal of one kidney and ligation of several branches of the renal artery, resulting in infarction and loss of function of two thirds of the remaining kidney. The procedure creates the conditions of severe hypertension, proteinuria, progressive renal function deterioration, tubulointerstitial damage and glomerulosclerosis (Olson J L, Hostetter T H, Rennke H G, Brenner B M, Venkatachalam M A: “Altered glomerular permselectivity and progressive sclerosis following extreme ablation of renal mass”. Kidney Int 22:112-126, 1982).
Nephropathy is evident as a progressively increasing amount of protein in urine, increases in serum creatinine and increases in arterial pressure. In addition, severe sclerosis of the glomeruli, inflammatory cell infiltration and tubular damage are measurable through histological analysis within 3 months of renal mass reduction (RMR). These measures form the basis for determining efficacy in the model. Urine protein, serum creatinine and arterial pressure are similarly measured in humans to determine impact of treatments on disease progression.
The aim of this study was to evaluate the effects of Compound 1 compared to an ACE inhibitor (enalapril), as well as the combination treatment with Compound 1 and enalapril, on proteinuria and renal disease progression in this model. The effectiveness of these agents has been associated with reductions in proteinuria, slowing of the rate of rise in serum creatinine and reduction in glomerular sclerosis and thus slowing of the progression to end stage renal failure.
as §1

rat remnant kidney model [5] = experiment: Blood pressure in rat remnant kidney model; type: in vivo; conditions: Compound 1 10 and 30 mg/kg/d; enalapril; combination enalapril + Compound 1 30 mg/kg/d; FIG. 3
Protocol: as §1
Blood pressure reduction can contribute to slowing the progression of renal disease in this animal model as well as in humans.

[6] = both doses of Compound 1, enalapril alone, combination, reduced in RMR rats vs control
[7] = 1 month of treatment, Enalapril 15 mg/L
[8] = 2 month of treatment, Enalapril 15 mg/L
[9] = basal (before RMR and treatment), group Enalapril 15 mg/L
[10] = pre-treatment (21 d after RMR), group Enalapril 15 mg/L
[11] = 30 mg/kg/d in drinking water for 12 weeks
[12] = 1 and 2 months of treatment, Compound 1 10 and 30 mg/kg/d, enalapril 15 mg/mL, combination enalapril + Compound 1 30 mg/kg/d, FIG. 1

CCOC(=O)[C@H](CCc1ccccc1)N[C@@H](C)C(=O)N1CCC[C@H]1C(=O)O [Enalapril, enalapril, reference compound]
urinary Na excretion (rat remnant kidney model [1]; both doses of Compound 1 (10, 30 mg/kg/d), enalapril alone, combination, reduced in vehicle treated RMR rats): tended to normalize urinary Na excretion to similar extents
urinary Cl excretion (rat remnant kidney model [1]; [6]): tended to normalize urinary K and Cl excretion
urinary K excretion (rat remnant kidney model [1]; [6]): tended to normalize urinary K and Cl excretion
urine chloride ion (Cl−) (rat remnant kidney model [1]; compared to vehicle group): significantly greater than those in the vehicle group
(mean) arterial pressure over 48 h (Type I diabetic rats): no effect
diuresis (rat remnant kidney model [2]; [7]): 46 ± 4 mL/24 h
water intake (rat remnant kidney model [2]; [7]): 60 ± 4*° mL/24 h
diuresis (rat remnant kidney model [2]; [8]): 45 ± 3 mL/24 h
water intake (rat remnant kidney model [2]; [8]): 59 ± 6 mL/24 h
diuresis (rat remnant kidney model [2]; [9]): 19 ± 1 mL/24 h
water intake (rat remnant kidney model [2]; [9]): 44 ± 4 mL/24 h
diuresis (rat remnant kidney model [2]; [10]): 46 ± 5 mL/24 h
water intake (rat remnant kidney model [2]; [10]): 66 ± 6 mL/24 h
fraction of filtered sodium and potassium excreted [3, 11]: unaffected
urine endpoints: daily volume output, osmolarity, chloride, creatinine, sodium or potassium concentrations, clearances or excretion values [3, 11]: not significantly altered
Mortality at 12 weeks ([3]; 30 mg/kg/d in drinking water for 12 weeks, dead/total, untreated 1/10): 3/10
serum albumin concentrations ([3]; 30 mg/kg/d, compared to vehicle treated controls): not statistically significant, serum albumin concentrations increased
kidney weight or renal glomerular or mesangial morphology ([3]; 30 mg/kg/d, compared to vehicle treated diabetic rats): no significant effects
urinary albumin excretion (in words) (db/db mice; 30 mg/kg/d in drinking water for 16 weeks, FIG. 5): tended to reduce urine albumin excretion with significant differences observed at 2 weeks and 16 weeks compared to vehicle controls
mesangial surface area or percentage of glomerular area occupied by mesangium (db/db mice; 30 mg/kg/d, compared to vehicle-treated animals): No significant differences
urine osmolarity (db/db mice; 30 mg/kg/d, throughout 16 weeks of dosing): unaffected by treatment
albumin excretion in urine (db/db mice; enalapril 30 mg/kg/d in drinking water, over 16 weeks, FIG. 5): ≤ 500 ug/24 h
serum creatinine (rat remnant kidney model [4]; [12]): significantly reduced
urine protein (rat remnant kidney model [4]; [12]): significantly reduced
Mortality rate (rat remnant kidney model [4]; 1 month of treatment): 0/7
Mortality rate (rat remnant kidney model [4]; 2 month of treatment): 1/7
number of ED 1 positive cells per field (monocytes/macrophages in renal interstitium) (rat remnant kidney model [4]; enalapril 15 mg/mL, termination, vehicle 63±4, statistically significant reduction): 38±6 positive cells per field
percentage of sclerotic glomeruli (rat remnant kidney model [4]; renal histology at termination, Compound 1 10 or 30 mg/kg/d, enalapril, combination enalapril + Compound 1 30 mg/kg/d, FIG. 2): significant reduction
arterial pressure (rat remnant kidney model [5]): significant reductions in arterial pressure compared to vehicle
